The results in this text go back to patent publication US12180213B2, “Substituted pyrazoles showing serotonin 5-HT receptor activity” (Sumitomo Pharma Co., Ltd., priority 2018, dated 2024).

Read-outs that look alike come from different tables or passages of the source.

Data set [1] addresses T1, human 5-HT1A receptor (Homo sapiens (Human), UniProt P08908). The experiment in a line: Test 1: binding activity for human 5-HT1A receptor ([3H]8-OH-DPAT). Particulars: CHO cell membrane fraction. Here is the method: (§1) Test 1: Evaluation of binding activity for human 5-HT1A receptor, human 5-HT2A receptor, and human D2 receptor
(§2) Binding affinity of the present compound for human 5-HT1A receptor, human 5-HT2A receptor, and human D2 receptor was measured by the following procedures.
(§3) Each mixture was incubated at room temperature for 60 minutes. Then, the mixture was added quickly on a glassfiber filter plate (Multiscreen FB, Millipore, Inc.) coated with 0.3% aqueous polyethylenimine, and vacuum-filtered. Radioactivity remaining on the filter was measured with a liquid scintillation counter (PerkinElmer, Inc.). Binding inhibition rate was calculated from the following formula.
IC50 value was calculated by Hill analysis (Physiology, 1910, 40, 190-200). Ki of each compound was calculated from the following formula.
(§4) Binding inhibition constant (Ki)=IC50/(1+S/Kd) wherein S is concentration of ligand; Kd is a binding dissociation constant of ligand to membrane, which is calculated from a saturated binding experiment conducted with the same cell membrane. A small Ki value means strong binding ability to a receptor.

Data set [2] can be described thus: Test 4: metabolic stability test in human hepatic microsome. It counts as in vitro ADME. Particulars: 0.1 mg/mL microsome, 0.1 μmol/L compound, 37° C., 30 minutes. As for the experimental part:
Test 4: Metabolic Stability Test in Human Hepatic Microsome
The stability of the present compound in human hepatic microsome metabolism was evaluated as mentioned below. Human hepatic microsome was obtained from Xenontech. Human hepatic microsome, NADPH, and each test compound were mixed in 25 mmol/L phosphate buffer solution (pH 7.4) to reach the following concentrations as shown below, and the mixture was incubated at 37° C. for 30 minutes. • Human hepatic microsome: 0.1 mg/mL • NAPDH: 3.2 mmol/L • Test compound: 0.1 μmol/L
The residual ratio of the test compound in each sample after 30 minutes was measured by LC-MS, and the metabolic stability in human hepatic microsome was calculated from the following formula. Metabolic stability in human hepatic microsome (mL/min/mg protein)=−LN(residual ratio)/30/0.1

Data set [3] has as its target T1, human 5-HT1A receptor. Briefly: Test 2: agonist activity for human 5-HT1A receptor ([35S]GTPγS binding). It is filed as biochemical. Particulars: for Emax at 10 µM / 5-HT1A agonist activity Emax: agonist activity in the presence of 10 μM of compound, relative to 100 μmol/L 5-HT. Here is the method: Test 2: Evaluation of Agonist Activity for Human 5-HT1A Receptor
CHO cell membrane fraction in which human 5-HT1A receptor was expressed as used in Test 1 was purchased. To a buffer containing guanosine diphosphate were added a test compound dissolved in DMSO, each receptor membrane sample diluted with buffer, and [^35S] Guanosine 5′-O-[gamma-thio]triphosphate (GTPγS). The mixture was incubated at room temperature for 60 minutes. Then, the mixture was added quickly on a glassfiber filter plate (Multiscreen FB, Millipore, Inc.), and vacuum-filtered. Radioactivity remaining on the […] was measured with a liquid scintillation counter. Agonist activity was calculated from the following formula.

The target of the next data set is human D2 receptor (Homo sapiens (Human), UniProt P14416). The experiment in a line: Test 1: binding activity for human D2 receptor ([3H]Spiperone). The note with it: for Ki: [3H]Spiperone, CHO cell membrane fraction; for D2 Ki/5-HT1A Ki: ratio of D2 Ki to 5-HT1A Ki; for D2 Ki/5-HT2A Ki: ratio of D2 Ki to 5-HT2A Ki. As for the experimental part:
as §1, §2, §3
(§5) Ki of each compound was calculated from the following formula.
as §4

Data set [4] concerns the target T2, human 5-HT2A receptor (Homo sapiens (Human), UniProt P28223). Briefly: Test 3: antagonist activity for human 5-HT2A receptor (aequorin luminescence, CHO-K1 cells). It counts as cell-based. The note with it: against 1 nmol/L 5-HT. As for the experimental part: Test 3: Evaluation of Antagonist Activity for Human 5-HT2A Receptor
Aequorin, Gα16 protein, and each receptor were transiently expressed in CHO-K1 cells (Chinese hamster ovary). […] Antagonist activity was calculated from the following formula.
Antagonist activity (%)=100×{(Luminescence of well in the presence of 1 nmol/L 5-HT−Luminescence of well containing solvent)−(Luminescence of well in the presence of test compound and 1 nmol/L 5-HT−Luminescence of well containing solvent)}/(Luminescence of well in the presence of 1 nmol/L 5-HT−Luminescence of well containing solvent)

The next data set addresses hERG channel (Homo sapiens (Human), UniProt Q12809). The experiment in a line: Test 6-1: inhibitory activity for hERG channel (auto patch clamp, Qpatch). It is filed as cell-based. Particulars: whole cell patch clamp, read-out: hERG inhibition IC50. Here is the method:
Test 6-1: Evaluation of Inhibitory Activity for hERG Channel
Inhibitory activity of the present compound for hERG channel was measured by whole cell patch clamp method with an auto patch clamp system using CHO cells in which hERG channel involved in human rapidly activating delayed rectifier potassium current (IKr) was forcibly expressed.
(Preparation of cell suspension)
hERG-CHO cells purchased from ChanTest Cop. were cultured in a CO2 incubator at 37° C., and dissociated from a flask with trypsin shortly before the measurement of hERG current, to prepare a cell suspension.
(Preparation of Solution)
Extracellular and intracellular fluid used in the measurement were prepared as follows.
Intracellular fluid: 5.4 mmol/L CaCl2, 1.8 mmol/L MgCl2, 10 mmol/L HEPES, 31 mmol/L KOH, 10 mmol/L EGTA, 120 mmol/L KCl, 4 mmol/L Na2-ATP
Test compound solution: Test compound was dissolved in DMSO to reach the concentration of 2 mmol/L or 20 mmol/L, in order to prepare a test compound solution. […] (Measurement of Current Value and Data Analysis)
The cell suspension, the extracellular fluid, the intracellular fluid, and the measurement plate were set in the auto patch clamp system, and hERG current was measured by whole cell patch clamp method. […] Each pulse interval was 15 seconds. The data analysis was carried out with Qpatch Assay Software (Biolin Scientific). The test was carried out by applying incrementally 4 concentrations of each test compound, and the average of the maximum peak tail currents which were obtained from the last 3 stimulations in each concentration was determined as the evaluated data.

The target of data set [5] is T2, human 5-HT2A receptor. The experiment in a line: Test 1: binding activity for human 5-HT2A receptor ([3H]Ketanserin). The note with it: CHO cell membrane fraction. As for the experimental part:
as §1, §2, §3, §5, §4

The mark [6] stands for this setting: human, CHO cells that express hERG.

T2 sequence (P28223 whole entry): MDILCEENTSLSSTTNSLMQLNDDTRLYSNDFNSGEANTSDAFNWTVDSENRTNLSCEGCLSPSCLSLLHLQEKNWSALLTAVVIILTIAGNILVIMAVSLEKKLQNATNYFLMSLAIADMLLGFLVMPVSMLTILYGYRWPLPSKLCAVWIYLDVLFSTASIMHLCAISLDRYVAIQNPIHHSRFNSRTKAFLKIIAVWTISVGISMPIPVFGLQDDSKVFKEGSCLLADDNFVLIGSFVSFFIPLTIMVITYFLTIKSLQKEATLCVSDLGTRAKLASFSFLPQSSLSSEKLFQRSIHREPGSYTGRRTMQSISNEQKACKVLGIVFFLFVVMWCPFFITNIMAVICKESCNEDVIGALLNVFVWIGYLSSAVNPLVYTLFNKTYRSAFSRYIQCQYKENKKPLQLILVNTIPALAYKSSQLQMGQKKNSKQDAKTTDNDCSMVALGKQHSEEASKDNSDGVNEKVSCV
hERG channel, sequence (Q12809 whole entry): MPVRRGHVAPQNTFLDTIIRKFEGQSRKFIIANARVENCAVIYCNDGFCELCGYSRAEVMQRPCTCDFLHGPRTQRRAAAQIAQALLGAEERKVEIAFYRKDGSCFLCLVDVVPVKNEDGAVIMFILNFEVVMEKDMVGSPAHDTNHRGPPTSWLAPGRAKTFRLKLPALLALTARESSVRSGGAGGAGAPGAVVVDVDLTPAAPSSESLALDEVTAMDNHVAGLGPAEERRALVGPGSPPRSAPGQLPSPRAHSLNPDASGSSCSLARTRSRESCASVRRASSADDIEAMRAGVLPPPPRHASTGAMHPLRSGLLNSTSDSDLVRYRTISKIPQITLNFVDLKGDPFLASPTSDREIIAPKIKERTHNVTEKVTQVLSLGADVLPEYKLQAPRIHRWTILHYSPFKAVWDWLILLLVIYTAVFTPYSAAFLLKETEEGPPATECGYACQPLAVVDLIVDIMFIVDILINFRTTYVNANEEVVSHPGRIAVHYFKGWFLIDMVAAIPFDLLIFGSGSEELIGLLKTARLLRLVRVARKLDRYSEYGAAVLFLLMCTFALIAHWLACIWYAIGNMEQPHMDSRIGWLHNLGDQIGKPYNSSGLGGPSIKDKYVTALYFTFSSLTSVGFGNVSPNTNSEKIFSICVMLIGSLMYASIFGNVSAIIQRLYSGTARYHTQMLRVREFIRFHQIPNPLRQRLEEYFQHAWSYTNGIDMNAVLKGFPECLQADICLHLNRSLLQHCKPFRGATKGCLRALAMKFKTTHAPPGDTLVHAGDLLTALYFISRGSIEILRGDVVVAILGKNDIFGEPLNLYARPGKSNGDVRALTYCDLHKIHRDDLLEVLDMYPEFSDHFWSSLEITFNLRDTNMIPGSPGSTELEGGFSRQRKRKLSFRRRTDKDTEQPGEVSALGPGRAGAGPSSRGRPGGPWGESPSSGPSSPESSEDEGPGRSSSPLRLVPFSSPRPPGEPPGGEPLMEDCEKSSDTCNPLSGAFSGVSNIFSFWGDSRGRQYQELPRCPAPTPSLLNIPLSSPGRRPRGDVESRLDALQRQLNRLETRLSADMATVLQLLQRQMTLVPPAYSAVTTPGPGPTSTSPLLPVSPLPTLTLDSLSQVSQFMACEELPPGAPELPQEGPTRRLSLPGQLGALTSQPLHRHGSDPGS
human D2 receptor, sequence (P14416 whole entry): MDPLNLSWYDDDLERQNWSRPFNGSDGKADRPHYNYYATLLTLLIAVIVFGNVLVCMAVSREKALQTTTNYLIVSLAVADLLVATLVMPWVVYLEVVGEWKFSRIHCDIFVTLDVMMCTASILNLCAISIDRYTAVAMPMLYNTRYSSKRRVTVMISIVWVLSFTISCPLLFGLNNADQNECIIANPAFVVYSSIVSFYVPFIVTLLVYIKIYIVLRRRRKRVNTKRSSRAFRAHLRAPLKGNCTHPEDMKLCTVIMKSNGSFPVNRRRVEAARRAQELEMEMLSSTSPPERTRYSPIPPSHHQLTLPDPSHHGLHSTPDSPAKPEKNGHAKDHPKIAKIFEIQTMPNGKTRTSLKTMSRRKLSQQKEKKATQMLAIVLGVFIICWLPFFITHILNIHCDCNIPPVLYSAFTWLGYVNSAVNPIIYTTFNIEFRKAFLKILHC
T1 sequence (P08908 whole entry): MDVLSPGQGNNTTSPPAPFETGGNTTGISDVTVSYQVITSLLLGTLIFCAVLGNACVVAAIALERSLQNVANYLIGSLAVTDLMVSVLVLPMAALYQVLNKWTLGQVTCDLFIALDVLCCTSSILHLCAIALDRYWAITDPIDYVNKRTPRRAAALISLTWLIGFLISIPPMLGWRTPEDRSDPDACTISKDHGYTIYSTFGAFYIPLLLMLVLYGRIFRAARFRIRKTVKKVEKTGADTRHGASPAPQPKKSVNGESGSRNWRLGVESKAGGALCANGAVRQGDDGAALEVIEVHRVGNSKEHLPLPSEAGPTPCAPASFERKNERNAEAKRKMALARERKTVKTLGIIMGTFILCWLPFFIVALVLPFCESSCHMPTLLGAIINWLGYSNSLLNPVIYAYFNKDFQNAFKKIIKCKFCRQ

With `O=c1c2ncccc2ccn1CCN1CCN(c2nsc3cc(F)ccc23)CC1` [Example 12], the Ki on human 5-HT1A receptor [1] came out at 7.03 nM. The “Metabolic stability in human hepatic microsome” value (shortened to “Metabolic stability”) in data set [2] was found to be 0.02 mL/min/mg protein. Moreover, the Emax at 10 µM at human 5-HT1A receptor [3] came to 32%. At human D2 receptor, the affinity corresponds to a Ki of 311 nM, the “D2 Ki/5-HT1A Ki” value turned out to be 44 and the “D2 Ki/5-HT2A Ki” value stood at 111.

As to `O=C1c2cnccc2CCN1CCN1CCC(c2noc3ccccc23)CC1` [Example 13], the values for the IC50 against human 5-HT2A receptor [4] and on hERG channel (hERG-CHO cells) were 71 nM and 1100 nM, respectively. Moreover, the “Metabolic stability” value in data set [2] was less than 0.01 mL/min/mg protein.

`Cn1ncc2c1CCCC(CCN1CCN(c3noc4ccccc34)CC1)C2=O` (stereo not drawn) [Example 30]: the “Metabolic stability” value in data set [2] came to 0.065 mL/min/mg protein. The molecule also came in with a Ki on human 5-HT2A receptor [5] of 0.76 nM. For the same molecule, at hERG channel (setting [6]), the IC50 amounted to 900 nM. Also, the Emax at 10 µM at human 5-HT1A receptor [3] is 42%.

Consider `Cc1noc2c1C(=O)N(CCN1CCN(c3noc4ccccc34)CC1)CCC2` [Example 38], for which the Ki on human 5-HT1A receptor [1] was determined as 13.5 nM; at human 5-HT2A receptor [5] it was 4.44 nM. Moreover, in data set [2], the “Metabolic stability” value was 0.136 mL/min/mg protein. In addition, the IC50 on hERG channel (setting [6]) was 500 nM. Besides, the Emax at 10 µM at human 5-HT1A receptor [3] came out at 56%.

For `Cc1nc2c(o1)CCN(CCN1CCN(c3noc4ccccc34)CC1)C2=O` [Example 39], the Ki was 0.84 nM on human 5-HT1A receptor [1] and 1860 nM at human D2 receptor. In data set [2], the “Metabolic stability” value was found to be 0.016 mL/min/mg protein. Moreover, the Emax at 10 µM on human 5-HT1A receptor [3] stood at 61%.

Turning to `Cc1cc2c(o1)C(=O)N(CCN1CCN(c3nsc4ccccc34)CC1)CC2` [Example 45], the “Metabolic stability” value in data set [2] is on record as 0.032 mL/min/mg protein. This molecule displayed a Ki on human 5-HT2A receptor [5] of 3.1 nM. Further, the IC50 on hERG channel (setting [6]) is 7000 nM. Further, the Emax at 10 µM on human 5-HT1A receptor [3] came out at 65%.

At human 5-HT1A receptor [1], `O=C1c2oc(C3CC3)nc2CCC1CCN1CCN(c2nsc3ccccc23)CC1` (stereo not drawn) [Example 67] returned a Ki of 1.17 nM. Moreover, in data set [2], the “Metabolic stability” value was 0.269 mL/min/mg protein. In addition, on human 5-HT1A receptor [3], the Emax at 10 µM was 65%.

`Cn1nc(Br)c2c1CCN(CCN1CCN(c3nsc4ccccc34)CC1)C2=O` [Example 69] gave an EC50 on human 5-HT1A receptor [3] (concentration at which half the activity of Emax was obtained) of 33.9 nM. That is a double-digit nanomolar value.

`Cn1nc(Br)c2c1CCN(CCN1CCC(c3noc4ccccc34)CC1)C2=O` [Example 70]: at human 5-HT1A receptor [3], the “5-HT1A agonist activity Emax” value is listed as 50%.

`Cn1nc2c(c1Br)C(=O)N(CCN1CCN(c3nsc4ccccc34)CC1)CC2` [Example 73]: on human 5-HT1A receptor [3], the “5-HT1A agonist activity Emax” value is reported as 62%.

On to `CC1CC(CCN2CCC(c3noc4ccccc34)CC2)C(=O)c2ccn(C)c21` (stereo not drawn) [Example 82], for which the Ki was 0.61 nM at human 5-HT1A receptor [1] and 0.87 nM on human 5-HT2A receptor [5]. Also, in data set [2], the “Metabolic stability” value is on record as 0.072 mL/min/mg protein. Also, on human 5-HT1A receptor [3], the Emax at 10 µM was 61%.

On human D2 receptor, `O=C1c2ncccc2CCN1CCN1CCN(c2noc3cc(Cl)ccc23)CC1` [Example 124] gave a Ki of more than 10000 nM.

As to `COc1ccc2c(N3CCN(CCN4CCc5cccnc5C4=O)CC3)noc2c1` [Example 149], the Ki at human 5-HT1A receptor [1] is 184 nM; on human 5-HT2A receptor [5], 217 nM; at human D2 receptor, more than 10000 nM. The Emax at 10 µM at human 5-HT1A receptor [3] came out at 16%. On human D2 receptor, the “D2 Ki/5-HT1A Ki” value was more than 54.3. For the same molecule, the “D2 Ki/5-HT2A Ki” value on human D2 receptor is listed as more than 46.1.

For the molecule `COc1ccc2c(n1)C(=O)N(CCN1CCN(c3noc4ccccc34)CC1)CC2` [Example 186], in data set [2], the “Metabolic stability” value turned out to be 0.095 mL/min/mg protein.

Take `COc1ccc2c(n1)C(=O)N(CCN1CCC(c3noc4ccccc34)CC1)CC2` [Example 187]: the “Metabolic stability” value in data set [2] is on record as less than 0.05 mL/min/mg protein.
